Laboratory results as given in patent US20220091133A1, “METHODS AND ASSAYS FOR IMMUNE PHENOTYPING” (Washington University, priority 2020, published 2022).

What was measured:
lymphopenia in COVID-19 = details: preliminary studies, reference 24; cited from earlier work
[1] = system: PBMCs (T cell IFN-γ production); experiment: ELISpot, CD3/CD28-stimulated IFN-γ in patient PBMCs before and after IL-7 therapy (Example 5); format: in vivo, human; details: concomitant with initiation of IL-7 treatment
[2] = system: diluted whole blood (myeloid cell TNF-α production); experiment: Whole blood ELISpot, LPS-stimulated TNF-α production (Example 2); format: cell-based, human
Procedure: Innate and adaptive immune function was assessed using ELISpot analysis by measurement of the production of IFN-γ and TNF-α in ex vivo-stimulated cells following overnight culture. Capture Ab precoated 96-well polyvinylidene difluoride-backed strip plates were used for single color enzymatic assays (ImmunoSpot; Cellular Technology [CTL], Cleveland, Ohio) for detection of human IFN-γ and TNF-α. ELISpot culture procedure was followed as directed using instructions from the ELISpot kit. Samples were run in duplicate for each test condition. Plates were prepared with stimulant and were incubated at 37° C. and 5% CO2 for 30 min prior to plating cells. Identical conditions were prepared for comparison of whole blood assay to PBMC assay, and culture media alone was used as a negative control. […] PBMCs were plated into wells in quantities of 2.5×10^4 cells per well for IFN-γ and 2.5×10^3 cells per well for TNF-α. […]
Samples were scanned, analyzed, and quality controlled for spot count, spot area, and TWI using a Cellular Technology series 6 ImmunoSpot Universal Analyzer with ImmunoSpot 7.0 professional software (Cellular Technology Analyzers, Shaker Heights, Ohio). […]
The number of cytokine-secreting cells present in each ELISpot well is referred to as spot-forming units (SFU) and is reported in two distinct ways. […] The number of lymphocytes in each well was determined based upon the absolute lymphocyte count as measured by the patients' complete blood count. For ELISpot studies involving PBMCs, flow cytometry was performed on the PBMC fraction, and the number of lymphocytes, monocytes, and residual neutrophils were determined. […] Samples were acquired on FACScan (Becton Dickenson, Franklin Lakes, N.J.) with a five-color modification (CyTek Biosciences, Fremont, Calif.) and analyzed using FlowJo 10.2 (FlowJo, Ashland, Oreg.) as previously described (28). […]

[3] = system: sepsis-induced lymphopenia; details: clinical trial, reference 54; cited from earlier work
[4] = system: SARS-CoV-2-specific T cells; experiment: ELISpot, IFN-γ response to SARS-CoV-2 spike glycoprotein and nucleocapsid peptide pool (Example 5); format: in vivo, human; details: before vs after IL-7 therapy
[5] = Enzyme-linked immunosorbent assays for plasma type I IFN levels (Example 5); format: in vivo, human; details: plasma of critically ill COVID-19 patient
[6] = system: T cells (IFN-γ production); experiment: IFN-γ ELISPOT on patient PBMCs before and during IL-7 therapy (Example 3); format: in vivo, human; details: anti-CD3/anti-CD28 ex vivo stimulation, before vs during IL-7 therapy
Procedure: The effect of IL-7 in terms of improving the patient's T cell function was evaluated by an ex vivo stimulation assay using anti-CD3 and anti-CD28 antibodies (BioLegend, San Diego, Calif., USA) on an IFN-γ ELISPOT assay (Cellular Technologies Limited, Shaker Heights, Ohio, USA), which was performed as previously described.

[7] = system: PBMCs (monocyte TNF-α production); format: cell-based, human
[8] = Serial plasma cytokines, ProcartaPlex 9-plex Luminex panel (Example 5); format: in vivo, human; details: plasma of critically ill COVID-19 patient

## IL-7: recombinant human IL-7, immunoadjuvant and potent T cell activator; R&D Systems ex vivo, RevImmune for patients
Lymphopenia in COVID-19
  increase of ALCs in COVID-19 disease patients treated with IL-7: two- to three-fold
  tolerability of IL-7 in COVID-19 disease patients: well tolerated
[1]
  increase in the number of IFN-γ-producing T cells: multifold increases
[2]; CINS
  change in TNF-α SFUs with IL-7: no change
[2]; healthy subjects, p<0.01
  change in TNF-α SFUs with IL-7: significant decrease
[2]; septic patients, LPS + IL-7
  effect of IL-7 on the number of TNF-α-producing cells: does not increase
[3]
  effect on sepsis-induced lymphopenia: reversed sepsis-induced lymphopenia
  tolerability of IL-7 in patients with sepsis: well tolerated
[4]
  improvement in the number of SARS-CoV-2 spike protein and nucleocapsid specific T cells: over 30 fold
[5]; Post IL-7, Day 12
  IFN-α (all subtypes) plasma concentration: Undetectable
  IFN-β plasma concentration: 130 pg/mL
[5]; Post IL-7, Day 21
  IFN-α (all subtypes) plasma concentration: Undetectable
  IFN-β plasma concentration: 4.1 pg/mL
[6]
  increase in the proportion of activated, IFN-γ-producing T cells from baseline: 1.4 fold
[7]; COVID-19 patient PBMCs, LPS + IL-7, not statistically significant
  mean increase in LPS-induced TNF-α-producing cells after IL-7 coincubation: 101%
[7]; COVID-19 patients, LPS vs LPS + IL-7, n=25
  effect of IL-7 on monocyte TNF-α production: did not increase
[8]; Post IL-7, Day 12
  IFN-γ plasma concentration: Undetectable
  IL-1β plasma concentration: Undetectable
  IL-2 plasma concentration: Undetectable
  IL-6 plasma concentration: 30 pg/mL
  IL-10 plasma concentration: 2.71 pg/mL
  IL-12 plasma concentration: Undetectable
  IL-17 plasma concentration: 0.14 pg/mL
  Tumor necrosis factor-α plasma concentration: Undetectable
[8]; Post IL-7, Day 21
  IFN-γ plasma concentration: Undetectable
  IL-1β plasma concentration: Undetectable
  IL-2 plasma concentration: Undetectable
  IL-6 plasma concentration: 6 pg/mL
  IL-10 plasma concentration: 0.83 pg/mL
  IL-12 plasma concentration: Undetectable
  IL-17 plasma concentration: 0.12 pg/mL
  Tumor necrosis factor-α plasma concentration: Undetectable
